Test system: MV-4-11 cells
Test: Gene expression microarray analysis (Affymetrix PrimeView) and GSEA
Assay type: cell-based, human
Parameters: RFU PODN (11730768_x_at) / Fold change /veh PODN (11730768_x_at) / RFU LINC00158 (11744669_a_at) / Fold change /veh LINC00158 (11744669_a_at) / RFU DUSP10 (11751237_a_at) / Fold change /veh DUSP10 (11751237_a_at) / RFU ID3 (11757404_x_at) / Fold change /veh ID3 (11757404_x_at) / RFU PLEKHG5 (11737974_s_at) / Fold change /veh PLEKHG5 (11737974_s_at) / RFU LRRC4B (11730491_at) / Fold change /veh LRRC4B (11730491_at) / RFU GIMAP4 (11747438_a_at) / Fold change /veh GIMAP4 (11747438_a_at) / RFU KRT8 (11758183_x_at) / Fold change /veh KRT8 (11758183_x_at) / RFU CNN1 (11734310_a_at) / Fold change /veh CNN1 (11734310_a_at) / RFU VPS37D (11726825_at) / Fold change /veh VPS37D (11726825_at) / RFU C10orf10 (11716522_x_at) / Fold change /veh C10orf10 (11716522_x_at) / RFU KIR2DL2 /// KIR2DL4 /// KIR2DL5A /// KIR2DL5B /// KIR2DS1 /// KIR2DS2 /// KIR2DS3 /// KIR2DS4 /// KIR3DL3 /// KIR3DL3 /// KIR3DS1 (11738374_at) / Fold change /veh KIR2DL2 /// KIR2DL4 /// KIR2DL5A /// KIR2DL5B /// KIR2DS1 /// KIR2DS2 /// KIR2DS3 /// KIR2DS4 /// KIR3DL3 /// KIR3DL3 /// KIR3DS1 (11738374_at) / RFU C1QL1 (11718748_at) / Fold change /veh C1QL1 (11718748_at) / RFU TMPRSS4 (11747572_a_at) / Fold change /veh TMPRSS4 (11747572_a_at) / RFU HAMP (11756126_x_at) / Fold change /veh HAMP (11756126_x_at) / RFU RNFT2 (11725882_a_at) / Fold change /veh RNFT2 (11725882_a_at) / RFU NR4A2 (11747474_a_at) / Fold change /veh NR4A2 (11747474_a_at) / RFU ABCC12 (11746883_a_at) / Fold change /veh ABCC12 (11746883_a_at) / RFU TMEM136 (11760407_x_at) / Fold change /veh TMEM136 (11760407_x_at) / RFU CLDN22 /// WWC2 (11732394_at) / Fold change /veh CLDN22 /// WWC2 (11732394_at) / RFU HLA-DPB1 (11760878_x_at) / Fold change /veh HLA-DPB1 (11760878_x_at) / RFU SPINT1 (11716480_a_at) / Fold change /veh SPINT1 (11716480_a_at) / RFU GAP43 (11754022_s_at) / Fold change /veh GAP43 (11754022_s_at) / RFU A4GNT (11735810_at) / Fold change /veh A4GNT (11735810_at) / RFU PRB3 (11715151_x_at) / Fold change /veh PRB3 (11715151_x_at) / RFU TUBB4B (11761932_at) / Fold change /veh TUBB4B (11761932_at) / RFU CAPN14 (11732068_a_at) / Fold change /veh CAPN14 (11732068_a_at) / RFU TMCC2 (11721928_a_at) / Fold change /veh TMCC2 (11721928_a_at) / RFU IRGQ (11745062_a_at) / Fold change /veh IRGQ (11745062_a_at) / RFU FAM174B (11720279_a_at) / Fold change /veh FAM174B (11720279_a_at) / RFU TMPRSS4 (11748680_a_at) / Fold change /veh TMPRSS4 (11748680_a_at) / RFU FAM212B (11763350_a_at) / Fold change /veh FAM212B (11763350_a_at) / RFU PLEKHG5 (11743358_a_at) / Fold change /veh PLEKHG5 (11743358_a_at) / RFU ZSCAN30 (11745921_a_at) / Fold change /veh ZSCAN30 (11745921_a_at) / RFU CMKLR1 (11741424_a_at) / Fold change /veh CMKLR1 (11741424_a_at) / RFU LOC101060620 /// MAPK8IP1 (11723275_at) / Fold change /veh LOC101060620 /// MAPK8IP1 (11723275_at) / RFU SPTSSB (11747773_x_at) / Fold change /veh SPTSSB (11747773_x_at) / RFU PRSS12 (11739890_at) / Fold change /veh PRSS12 (11739890_at) / RFU BIN1 (11741810_x_at) / Fold change /veh BIN1 (11741810_x_at) / RFU WNT11 (11732464_a_at) / Fold change /veh WNT11 (11732464_a_at) / RFU C10orf10 (11716521_a_at) / Fold change /veh C10orf10 (11716521_a_at) / RFU C5orf56 (11738089_at) / Fold change /veh C5orf56 (11738089_at) / RFU CYB561 (11721691_x_at) / Fold change /veh CYB561 (11721691_x_at) / RFU ANKRD19P (11752326_a_at) / Fold change /veh ANKRD19P (11752326_a_at) / RFU OR2T12 /// OR2T33 /// OR2T8 (11738714_s_at) / Fold change /veh OR2T12 /// OR2T33 /// OR2T8 (11738714_s_at) / RFU VCAN (11748164_a_at) / Fold change /veh VCAN (11748164_a_at) / RFU JSRP1 (11732532_at) / Fold change /veh JSRP1 (11732532_at) / RFU KRTAP10-11 (11738290_x_at) / Fold change /veh KRTAP10-11 (11738290_x_at) / RFU MYO3A (11730013_a_at) / Fold change /veh MYO3A (11730013_a_at) / RFU EBF3 (11725865_a_at) / Fold change /veh EBF3 (11725865_a_at) / RFU CAMK2N1 (11719241_x_at) / Fold change /veh CAMK2N1 (11719241_x_at) / RFU C5orf56 (11738088_a_at) / Fold change /veh C5orf56 (11738088_a_at) / RFU OLFML3 (11715873_a_at) / Fold change /veh OLFML3 (11715873_a_at) / RFU LOC100653217 /// NTM (11731650_a_at) / Fold change /veh LOC100653217 /// NTM (11731650_a_at) / RFU MAPK11 (11762145_a_at) / Fold change /veh MAPK11 (11762145_a_at) / RFU FIZ1 (11724087_x_at) / Fold change /veh FIZ1 (11724087_x_at) / RFU OASL (11726364_x_at) / Fold change /veh OASL (11726364_x_at) / RFU SOX15 (11748057_x_at) / Fold change /veh SOX15 (11748057_x_at) / RFU CD79A (11719716_a_at) / Fold change /veh CD79A (11719716_a_at) / RFU HIST1H1D (11736915_at) / Fold change /veh HIST1H1D (11736915_at) / RFU CASKIN2 (11723855_a_at) / Fold change /veh CASKIN2 (11723855_a_at) / RFU LOC730098 (11760151_x_at) / Fold change /veh LOC730098 (11760151_x_at) / RFU OR4N2 (11742367_at) / Fold change /veh OR4N2 (11742367_at) / RFU PRRT2 (11749266_a_at) / Fold change /veh PRRT2 (11749266_a_at) / RFU SNX32 (11753110_a_at) / Fold change /veh SNX32 (11753110_a_at) / RFU CDHR5 (11726645_a_at) / Fold change /veh CDHR5 (11726645_a_at) / RFU RCAN1 (11760418_a_at) / Fold change /veh RCAN1 (11760418_a_at) / RFU FAM167A (11723789_a_at) / Fold change /veh FAM167A (11723789_a_at) / RFU FAM26E (11764081_at) / Fold change /veh FAM26E (11764081_at) / RFU ISYNA1 (11749810_s_at) / Fold change /veh ISYNA1 (11749810_s_at) / RFU ACY1 (11761880_at) / Fold change /veh ACY1 (11761880_at) / RFU 11764098_at / Fold change /veh 11764098_at / RFU SAMD14 (11745864_x_at) / Fold change /veh SAMD14 (11745864_x_at) / RFU NPB (11741838_a_at) / Fold change /veh NPB (11741838_a_at) / RFU TMPRSS6 (11731388_a_at) / Fold change /veh TMPRSS6 (11731388_a_at) / RFU KRTAP10-2 (11738614_at) / Fold change /veh KRTAP10-2 (11738614_at) / RFU ARHGAP8 /// PRR5-ARHGAP8 (11727945_x_at) / Fold change /veh ARHGAP8 /// PRR5-ARHGAP8 (11727945_x_at) / RFU KRTAP5-7 /// NADSYN1 (11734609_at) / Fold change /veh KRTAP5-7 /// NADSYN1 (11734609_at) / RFU RASL12 (11751679_a_at) / Fold change /veh RASL12 (11751679_a_at) / RFU CDKN2B (11736163_a_at) / Fold change /veh CDKN2B (11736163_a_at) / RFU PRF1 (11729649_at) / Fold change /veh PRF1 (11729649_at) / RFU, ZNF638 /// ZNF638-IT1 / Fold change vs veh, ZNF638 /// ZNF638-IT1 / RFU, PANK3 / Fold change vs veh, PANK3 / RFU, SH3YL1 / Fold change vs veh, SH3YL1 / RFU, ZEB2 / Fold change vs veh, ZEB2 / RFU, NRIP1 / Fold change vs veh, NRIP1 / RFU, PTTG1IP / Fold change vs veh, PTTG1IP / RFU, CAPN2 / Fold change vs veh, CAPN2 / RFU, MED14 / Fold change vs veh, MED14 / RFU, SNORA58 / Fold change vs veh, SNORA58 / RFU, C1orf63 / Fold change vs veh, C1orf63 / RFU, LRRFIP1 / Fold change vs veh, LRRFIP1 / RFU, NDUFAF7 / Fold change vs veh, NDUFAF7 / RFU, SLC12A2 / Fold change vs veh, SLC12A2 / RFU, IBTK / Fold change vs veh, IBTK / RFU, ESF1 / Fold change vs veh, ESF1 / Fold change vs veh, TMEM50B / RFU, TAOK1 / Fold change vs veh, TAOK1 / RFU, ACBD3 / Fold change vs veh, ACBD3 / RFU, TMA16 / Fold change vs veh, TMA16 / RFU, RWDD3 / Fold change vs veh, RWDD3 / RFU, BCAT1 / Fold change vs veh, BCAT1 / RFU, EDEM3 / Fold change vs veh, EDEM3 / RFU, TMEM33 / Fold change vs veh, TMEM33 / RFU, WDR75 / Fold change vs veh, WDR75 / RFU, AHCTF1 / Fold change vs veh, AHCTF1 / RFU, TFRC / Fold change vs veh, TFRC / RFU, ZDHHC17 / Fold change vs veh, ZDHHC17 / RFU, NOM1 / Fold change vs veh, NOM1 / RFU, ARL8B / Fold change vs veh, ARL8B / RFU, ZBTB11 / Fold change vs veh, ZBTB11 / RFU, TAMM41 / Fold change vs veh, TAMM41 / RFU, KIAA1704 /// LOC100996395 / Fold change vs veh, KIAA1704 /// LOC100996395 / RFU, ING1 / Fold change vs veh, ING1 / RFU, TRMT61B / Fold change vs veh, TRMT61B / RFU, FUBP3 / Fold change vs veh, FUBP3 / RFU, TP53 / Fold change vs veh, TP53 / RFU, TNKS2 / Fold change vs veh, TNKS2 / RFU, ZFP14 / Fold change vs veh, ZFP14 / RFU, ACTR2 / Fold change vs veh, ACTR2 / RFU, PPP3R1 / Fold change vs veh, PPP3R1 / RFU, PIK3R1 / Fold change vs veh, PIK3R1 / RFU, HNRNPA1 / Fold change vs veh, HNRNPA1 / RFU, RNF170 / Fold change vs veh, RNF170 / RFU, ZNF28 / Fold change vs veh, ZNF28 / RFU, RNGTT / Fold change vs veh, RNGTT / RFU, OGT / Fold change vs veh, OGT / RFU, BRD1 / Fold change vs veh, BRD1 / RFU, MARS / Fold change vs veh, MARS / RFU, ZNF655 / Fold change vs veh, ZNF655 / RFU, FAHD1 / Fold change vs veh, FAHD1 / RFU, BDP1 / Fold change vs veh, BDP1 / RFU, LRRCC1 / Fold change vs veh, LRRCC1 / RFU, ARID1A / Fold change vs veh, ARID1A / RFU, ZNF146 / Fold change vs veh, ZNF146 / RFU, ZNF330 / Fold change vs veh, ZNF330 / RFU, GPN3 / Fold change vs veh, GPN3 / RFU, C9orf123 / Fold change vs veh, C9orf123 / RFU, N4BP2L2 / Fold change vs veh, N4BP2L2 / RFU, ARFIP1 / Fold change vs veh, ARFIP1 / RFU, FAM179B / Fold change vs veh, FAM179B / RFU, BCL10 / Fold change vs veh, BCL10 / RFU, UHRF1BP1L / Fold change vs veh, UHRF1BP1L / RFU, BET1 / Fold change vs veh, BET1 / RFU, CNOT2 / Fold change vs veh, CNOT2 / RFU, ZNF268 / Fold change vs veh, ZNF268 / Fold change vs veh, ZNF507 / RFU, DGCR2 / Fold change vs veh, DGCR2 / RFU, WDSUB1 / Fold change vs veh, WDSUB1 / Fold change vs veh, HSP90B1 /// MIR3652 / RFU, ADSS / Fold change vs veh, ADSS / RFU, GK / Fold change vs veh, GK / RFU, ZNF148 / Fold change vs veh, ZNF148 / RFU, TAF9 / Fold change vs veh, TAF9 / RFU, SLC1A5 / Fold change vs veh, SLC1A5 / RFU, SLMO2 / Fold change vs veh, SLMO2 / RFU, ABCC4 / Fold change vs veh, ABCC4 / RFU, LOC101060439 /// RAP1B / Fold change vs veh, LOC101060439 /// RAP1B / RFU, RFX7 / Fold change vs veh, RFX7 / RFU, GTPBP10 / Fold change vs veh, GTPBP10 / RFU, CNEP1R1 / Fold change vs veh, CNEP1R1 / RFU, BIVM-ERCC5 /// ERCC5 / Fold change vs veh, BIVM-ERCC5 /// ERCC5 / RFU, ILF3 / Fold change vs veh, ILF3 / RFU 11762660_at / Fold change /veh 11762660_at / RFU VCAN (11757783_s_at) / Fold change /veh VCAN (11757783_s_at) / RFU DDX43 (11728927_at) / Fold change /veh DDX43 (11728927_at) / RFU KRT8 (11758188_x_at) / Fold change /veh KRT8 (11758188_x_at) / RFU NKD1 (11759106_at) / Fold change /veh NKD1 (11759106_at) / RFU SRD5A1 (11742802_a_at) / Fold change /veh SRD5A1 (11742802_a_at) / RFU TPSAB1 /// TPSB2 (11721975_s_at) / Fold change /veh TPSAB1 /// TPSB2 (11721975_s_at) / RFU GSTM3 (11746129_a_at) / Fold change /veh GSTM3 (11746129_a_at) / RFU IL23R (11737362_x_at) / Fold change /veh IL23R (11737362_x_at) / RFU TMEM51 (11727254_a_at) / Fold change /veh TMEM51 (11727254_a_at) / RFU PIWIL2 (11732686_x_at) / Fold change /veh PIWIL2 (11732686_x_at) / RFU ORM1 (11744905_x_at) / Fold change /veh ORM1 (11744905_x_at) / RFU CCDC152 (11743942_at) / Fold change /veh CCDC152 (11743942_at) / RFU ECM1 (11717891_a_at) / Fold change /veh ECM1 (11717891_a_at) / RFU IL23R (11748794_a_at) / Fold change /veh IL23R (11748794_a_at) / RFU TNFAIP8L3 (11732012_x_at) / Fold change /veh TNFAIP8L3 (11732012_x_at) / RFU MBOAT4 (11741988_at) / Fold change /veh MBOAT4 (11741988_at) / RFU 11764193_at / Fold change /veh 11764193_at / RFU TMEM53 (11763286_at) / Fold change /veh TMEM53 (11763286_at) / RFU MAGEB2 (11727129_at) / Fold change /veh MAGEB2 (11727129_at) / RFU TMEM200A (11744735_a_at) / Fold change /veh TMEM200A (11744735_a_at) / RFU CCDC152 (11751479_a_at) / Fold change /veh CCDC152 (11751479_a_at) / RFU FAM211A (11726209_a_at) / Fold change /veh FAM211A (11726209_a_at) / RFU RGS16 (11746705_a_at) / Fold change /veh RGS16 (11746705_a_at) / RFU VCAN (11755009_s_at) / Fold change /veh VCAN (11755009_s_at) / RFU RHOB (11743442_s_at) / Fold change /veh RHOB (11743442_s_at) / RFU RGS16 (11720943_a_at) / Fold change /veh RGS16 (11720943_a_at) / RFU RGS16 (11720944_at) / Fold change /veh RGS16 (11720944_at) / RFU, VPS4B / Fold change vs veh, VPS4B / RFU, CREB1 / Fold change vs veh, CREB1 / RFU, DNAJC13 / Fold change vs veh, DNAJC13 / RFU, GNAQ / Fold change vs veh, GNAQ / RFU, CDK5R1 / Fold change vs veh, CDK5R1 / RFU, ZRANB3 / Fold change vs veh, ZRANB3 / RFU, CUL4A / Fold change vs veh, CUL4A / RFU, CCNY / Fold change vs veh, CCNY / RFU, UFL1 / Fold change vs veh, UFL1 / RFU, COG3 / Fold change vs veh, COG3 / RFU, DIAPH2 / Fold change vs veh, DIAPH2 / RFU, SKA2 / Fold change vs veh, SKA2 / RFU, AFF3 / Fold change vs veh, AFF3 / RFU, LMF1 / Fold change vs veh, LMF1 / RFU, IPO11 / Fold change vs veh, IPO11 / RFU, DFFB / Fold change vs veh, DFFB / RFU, FOXP1 / Fold change vs veh, FOXP1 / RFU, CARD8 / Fold change vs veh, CARD8 / RFU, STRN3 / Fold change vs veh, STRN3 / RFU, ADK / Fold change vs veh, ADK / RFU, RASSF2 / Fold change vs veh, RASSF2 / RFU, WIPF1 / Fold change vs veh, WIPF1 / RFU, LARP1B / Fold change vs veh, LARP1B / RFU, RASA1 / Fold change vs veh, RASA1 / RFU, RB1 / Fold change vs veh, RB1 / RFU, PPFIA1 / Fold change vs veh, PPFIA1 / RFU, MAT2A / Fold change vs veh, MAT2A / RFU, CCT5 / Fold change vs veh, CCT5 / RFU, WDR92 / Fold change vs veh, WDR92 / RFU, CUX1 / Fold change vs veh, CUX1 / RFU, TTC7A / Fold change vs veh, TTC7A / RFU, TMEM135 / Fold change vs veh, TMEM135 / RFU, DEPTOR / Fold change vs veh, DEPTOR / RFU, CPM / Fold change vs veh, CPM / RFU, DNAJB6 / Fold change vs veh, DNAJB6 / RFU, CACNA2D3 / Fold change vs veh, CACNA2D3 / RFU, DTX4 / Fold change vs veh, DTX4 / RFU, TFCP2 / Fold change vs veh, TFCP2 / RFU, GMCL1 /// GMCL1P1 / Fold change vs veh, GMCL1 /// GMCL1P1 / RFU, AEBP2 / Fold change vs veh, AEBP2 / RFU, SNHG1 /// SNORD22 /// SNORD25 /// SNORD26 /// SNORD27 /// SNORD28 /// SNORD29 /// SNORD31 / Fold change vs veh, SNHG1 /// SNORD22 /// SNORD25 /// SNORD26 /// SNORD27 /// SNORD28 /// SNORD29 /// SNORD31 / Fold change (Aza/veh), C12orf56 (ProbeSet 11735607_a_at) / Fold change (ACY-1035/veh), C12orf56 (ProbeSet 11735607_a_at) / Fold change (Aza/veh), FGFR1OP (ProbeSet 11751329_s_at) / Fold change (ACY-1035/veh), FGFR1OP (ProbeSet 11751329_s_at) / Fold change (Aza/veh), VPS36 (ProbeSet 11739960_a_at) / Fold change (ACY-1035/veh), VPS36 (ProbeSet 11739960_a_at) / RFU SYPL1 (11715823_x_at) / Fold change /veh SYPL1 (11715823_x_at) / RFU IGFBP7 (11715501_s_at) / Fold change /veh IGFBP7 (11715501_s_at) / RFU REEP3 (11722064_at) / Fold change /veh REEP3 (11722064_at) / RFU IGLL1 (11728026_x_at) / Fold change /veh IGLL1 (11728026_x_at): dose or concentration left out as unconfirmed
Conditions: ProbeSet 11717308_a_at; LIST B

Nc1ncn([C@@H]2O[C@H](CO)[C@@H](O)[C@H]2O)c(=O)n1 [azacitidine]
Fold change vs veh, WDR75: 1.10
